# US10633419B2, “Immunomodulators” (BRISTOL-MYERS SQUIBB COMPANY, priority 2014, dated 2020)
# Starred links: 1 amine or outer side, 2 acyl side, 3 side chain; linkers in the order of their positions; H or OH if unused. Positions of bridges follow the written chain, without caps; N, C: chain ends. Non-standard residues stand in square brackets, D forms with d. Residues, ends and D or L forms follow the SMILES beside them. Groups on a side chain read outwards from the residue. *: point of attachment. X6 = O=C(O)CCCCCCCCCCCCCCCCC(=O)N[C@@H](CCC(=O)NCCCOCCOCCOCCCN*)C(=O)O; CH3O(CH2CH2O)11CH2CH2CO = COCCOCCOCCOCCOCCOCCOCCOCCOCCOCCOCCOCCC(=O)*; X4 = O=C(O)CCCCCCCCCCCCCCCCC(=O)N[C@@H](CC(=O)NCCCOCCOCCOCCCN*)C(=O)O; X18 = O=C(O)CCCCCCCCCCCCCCC(=O)N[C@@H](CC(=O)NCCCOCCOCCOCCCN*)C(=O)O; Trp(1-CH2COOH) = N[C@@H](Cc1cn(CC(=O)O)c2ccccc12)C(=O)O; X8 = O=C(O)CCCCCCCCCCCCNC(=O)CCC(=O)NCCCOCCOCCOCCCN*; Phe(3,4,5-F3) = N[C@@H](Cc1cc(F)c(F)c(F)c1)C(=O)O; γGlu = O=C(O)[C@H](CCC(=O)[*:2])N[*:1]; d(cisHyp) = O=C(O)[C@H]1C[C@@H](O)CN1; NH(CH2)12COOH = O=C(O)CCCCCCCCCCCCN*; X19 = O=C(C1C[C@H](O)CN1[*:1])[*:2]; Hyp = O=C(O)[C@@H]1C[C@@H](O)CN1; NHhexadecyl = CCCCCCCCCCCCCCCCN*; NMeF = CN[C@@H](Cc1ccccc1)C(=O)O; Myristoyl = CCCCCCCCCCCCCC(=O)*; dHyp = O=C(O)[C@H]1C[C@H](O)CN1; NMeNle = CCCC[C@H](NC)C(=O)O; dPip = O=C(O)[C@H]1CCCCN1; NMeA = CN[C@@H](C)C(=O)O; Pra = C#CC[C@H](N)C(=O)O; Aun = NCCCCCCCCCCC(=O)O; Dab = NCC[C@H](N)C(=O)O; Dap = NC[C@H](N)C(=O)O; Sar = CNCC(=O)O
# Molecular target: T1, PD-L1 (Homo sapiens, UniProt Q9NZQ7)
# T1 construct: hPDL1(19-239)-TVMV-His; made in house; host or cells: HEK293T
# T1 sequence (Q9NZQ7 with tags, fused parts or gaps): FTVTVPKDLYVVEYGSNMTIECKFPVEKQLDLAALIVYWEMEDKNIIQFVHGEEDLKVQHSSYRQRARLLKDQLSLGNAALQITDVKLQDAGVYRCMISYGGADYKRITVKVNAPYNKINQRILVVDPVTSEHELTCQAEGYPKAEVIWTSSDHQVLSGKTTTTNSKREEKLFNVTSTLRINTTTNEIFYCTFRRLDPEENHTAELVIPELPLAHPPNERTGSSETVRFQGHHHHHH
# Experiment: PD-1/PD-L1 Homogenous Time-Resolved Fluorescence (HTRF) binding assay (PD-1-Ig/PD-L1-His)
# Conditions: inhibition of PD-1-Ig binding to PD-L1-TVMV-His; value given as range class; read-out: HTRF IC50
# Procedure, shortened: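 Inhibitors pre-incubated 15 min with PD-L1-His (10 nM final), then PD-1-Ig (20 nM final) added for 15 min in dPBS/0.1% BSA/0.05% Tween-20. Eu-cryptate anti-Ig (1 nM) and APC anti-His (20 nM) added, 30 min equilibration, 665/620 nm HTRF ratio read.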
row,SMILES,IC50
1,CCCC[C@H]1C(=O)N(C)[C@@H](CCCC)C(=O)N[C@@H](CCCNC(=N)N)C(=O)N[C@H](C(=O)NCC(=O)N[C@@H](Cc2cn(CC[C@H](NC(=O)CCCCCCCCCCCCCCC(=O)O)C(=O)O)nn2)C(N)=O)CSCC(=O)N[C@@H](Cc2ccc(O)cc2)C(=O)N(C)[C@@H](C)C(=O)N[C@@H](CC(N)=O)C(=O)N2CCC[C@H]2C(=O)N[C@@H](CN)C(=O)N[C@@H](CC(C)C)C(=O)N2C[C@H](O)C[C@H]2C(=O)N[C@@H](Cc2c[nH]c3ccccc23)C(=O)N[C@@H](CO)C(=O)N[C@@H](Cc2c[nH]c3ccccc23)C(=O)N1C [Example 14066],0.3 to 9.9 nM
2,CCCC[C@H]1C(=O)N(C)[C@@H](CCCC)C(=O)N[C@@H](CC(C)C)C(=O)N[C@H](C(=O)NCCCOCCOCCOCCCNC(=O)CCC(=O)NCCCCCCCCCCCCC(=O)O)CSCC(=O)N[C@@H](Cc2ccc(O)cc2)C(=O)N(C)[C@@H](C)C(=O)N[C@@H](CC(N)=O)C(=O)N2CCC[C@H]2C(=O)N[C@@H](CN)C(=O)N[C@@H](CC(C)C)C(=O)N2C[C@H](O)C[C@H]2C(=O)N[C@@H](Cc2c[nH]c3ccccc23)C(=O)N[C@@H](CCN)C(=O)N[C@@H](Cc2cn(CC(=O)O)c3ccccc23)C(=O)N1C [Example 11214] ({CH2CO}-Y[NMeA]NP[Dap]L[Hyp]W[Dab][Trp(1-CH2COOH)][NMeNle][NMeNle]LC-X8; thioether N-14),10 to 99 nM
3,CCCCCCCCCCCCCC(=O)N[C@@H](CCC(=O)NCCCC[C@H](NC(=O)[C@H](CC(=O)O)NC(=O)CNC(=O)CNC(=O)[C@@H]1CSCC(=O)N[C@@H](Cc2ccc(O)cc2)C(=O)N(C)[C@@H](C)C(=O)N[C@@H](CC(=O)O)C(=O)N2CCC[C@H]2C(=O)N[C@@H](Cc2cnc[nH]2)C(=O)N[C@@H](CC(C)C)C(=O)N2C[C@H](O)C[C@H]2C(=O)N[C@@H](Cc2c[nH]c3ccccc23)C(=O)N[C@@H](CO)C(=O)N[C@@H](Cc2c[nH]c3ccccc23)C(=O)N(C)[C@@H](CCCC)C(=O)N(C)[C@@H](CCCC)C(=O)N[C@@H](CCCNC(=N)N)C(=O)N1)C(N)=O)C(=O)O [Example 11123] ({CH2CO}-Y[NMeA]DPHL[Hyp]WSW[NMeNle][NMeNle]RCGGDK([γGlu-Myristoyl])-NH2; thioether N-14),10 to 99 nM
4,CCCC[C@H]1C(=O)N(C)[C@@H](CCCC)C(=O)N[C@@H](CC(C)C)C(=O)N[C@H](C(=O)NCC(=O)N[C@@H](CC(=O)O)C(=O)N[C@@H](CC(=O)NCCCOCCOCCOCCCNC(=O)C[C@H](NC(=O)CCCCCCCCCCCCCCCCC(=O)O)C(=O)O)C(=O)O)CSCC(=O)N[C@@H](Cc2ccc(O)cc2)C(=O)N(C)[C@@H](C)C(=O)N[C@@H](CC(N)=O)C(=O)N2CCC[C@@H]2C(=O)N[C@@H](CN)C(=O)N[C@@H](CC(C)C)C(=O)N2C[C@@H](O)C[C@@H]2C(=O)N[C@@H](Cc2c[nH]c3ccccc23)C(=O)N[C@@H](CCN)C(=O)N[C@@H](Cc2cn(CC(=O)O)c3ccccc23)C(=O)N1C [Example 11232] ({CH2CO}-Y[NMeA]N[dP][Dap]L[dHyp]W[Dab][Trp(1-CH2COOH)][NMeNle][NMeNle]LCGDD(X4)-OH; thioether N-14),10 to 99 nM
5,CCCC[C@H]1C(=O)N(C)[C@@H](CCCC)C(=O)N[C@@H](CCC(=O)O)C(=O)N[C@H](C(=O)NCC(=O)N[C@@H](Cc2cn(CC[C@H](NC(=O)CCCCCCCCCCCCCCC(=O)O)C(=O)O)nn2)C(=O)NCC(N)=O)CSCC(=O)N[C@@H](Cc2ccc(O)cc2)C(=O)N(C)[C@@H](C)C(=O)N[C@@H](CC(=O)O)C(=O)N2CCC[C@H]2C(=O)N[C@@H](Cc2c[nH]cn2)C(=O)N[C@@H](CCCCN)C(=O)N2C[C@H](O)C[C@H]2C(=O)N[C@@H](Cc2c[nH]c3ccccc23)C(=O)N[C@@H](CCCCN)C(=O)N[C@@H](Cc2c[nH]c3ccccc23)C(=O)N1C [Example 14064],0.3 to 9.9 nM
6,CCCC[C@H]1C(=O)N(C)[C@@H](CCCC)C(=O)N[C@@H](CCC(=O)O)C(=O)N[C@H](C(=O)NCC(=O)N[C@@H](Cc2cn(CC[C@H](NC(=O)CCCCCCCCCCCCCCC(=O)O)C(=O)O)nn2)C(=O)N[C@@H](CC(=O)O)C(N)=O)CSCC(=O)N[C@@H](Cc2ccc(O)cc2)C(=O)N(C)[C@@H](C)C(=O)N[C@@H](CC(=O)O)C(=O)N2CCC[C@H]2C(=O)N[C@@H](Cc2c[nH]cn2)C(=O)N[C@@H](CCCCN)C(=O)N2C[C@H](O)C[C@H]2C(=O)N[C@@H](Cc2c[nH]c3ccccc23)C(=O)N[C@@H](CCCCN)C(=O)N[C@@H](Cc2c[nH]c3ccccc23)C(=O)N1C [Example 14065],10 to 99 nM
7,C#CC[C@H](NC(=O)CNC(=O)[C@@H]1CSCC(=O)N[C@@H](Cc2ccc(O)cc2)C(=O)N(C)[C@@H](C)C(=O)N[C@@H](CC(=O)O)C(=O)N2CCC[C@H]2C(=O)N[C@@H](Cc2c[nH]cn2)C(=O)N[C@@H](CCCCN)C(=O)N2C[C@H](O)C[C@H]2C(=O)N[C@@H](Cc2c[nH]c3ccccc23)C(=O)N[C@@H](CCCCN)C(=O)N[C@@H](Cc2cn(CC(=O)O)c3ccccc23)C(=O)N(C)[C@@H](CCCC)C(=O)N(C)[C@@H](CCCC)C(=O)N[C@@H](CCC(=O)O)C(=O)N1)C(=O)NCC(N)=O [INT 1400D] ({CH2CO}-Y[NMeA]DPHK[Hyp]WK[Trp(1-CH2COOH)][NMeNle][NMeNle]ECG[Pra]G-NH2; thioether N-14),0.3 to 9.9 nM
8,CCCC[C@H]1C(=O)N(C)[C@@H](CCCC)C(=O)N[C@@H](CCC(=O)O)C(=O)N[C@H](C(=O)NCC(=O)N[C@@H](CC(=O)NCCCOCCOCCOCCCNC(=O)CC[C@H](NC(=O)CCCCCCCCCCCCCCCCC(=O)O)C(=O)O)C(=O)O)CSCC(=O)N[C@@H](Cc2ccc(O)cc2)C(=O)N(C)[C@@H](C)C(=O)N[C@@H](CC(=O)O)C(=O)N(C)CC(=O)N[C@@H](Cc2c[nH]cn2)C(=O)N[C@@H](CCCCN)C(=O)N2C[C@H](O)C[C@H]2C(=O)N[C@@H](Cc2c[nH]c3ccccc23)C(=O)N[C@@H](CCN)C(=O)N[C@@H](Cc2cn(CC(=O)O)c3ccccc23)C(=O)N1C [Example 11174] ({CH2CO}-Y[NMeA]D[Sar]HK[Hyp]W[Dab][Trp(1-CH2COOH)][NMeNle][NMeNle]ECGD(X6)-OH; thioether N-14),10 to 99 nM
9,CCCCCCCCCCCCCCCCNC(=O)CNC(=O)CNC(=O)CNC(=O)CNC(=O)[C@@H]1CSCC(=O)N[C@@H](Cc2ccc(O)cc2)C(=O)N(C)[C@@H](C)C(=O)N[C@@H](CC(N)=O)C(=O)N2CCC[C@H]2C(=O)N[C@@H](CN)C(=O)N[C@@H](CC(C)C)C(=O)N2C[C@H](O)C[C@H]2C(=O)N[C@@H](Cc2c[nH]c3ccccc23)C(=O)N[C@@H](CO)C(=O)N[C@@H](Cc2c[nH]c3ccccc23)C(=O)N(C)[C@@H](CCCC)C(=O)N(C)[C@@H](CCCC)C(=O)N[C@@H](CCCNC(=N)N)C(=O)N1 [Example 11108] ({CH2CO}-Y[NMeA]NP[Dap]L[Hyp]WSW[NMeNle][NMeNle]RCGGGG-NHhexadecyl; thioether N-14),100 to 1600 nM
10,"CCCC[C@H]1C(=O)N2C[C@H](O)C[C@@H]2C(=O)N[C@@H](CC(=O)O)C(=O)N[C@@H](C(C)C)C(=O)N(C)[C@@H](Cc2ccccc2)C(=O)N[C@@H](Cc2ccc(O)cc2)C(=O)N2CCCC[C@@H]2C(=O)N[C@@H](Cc2c[nH]c3ccccc23)C(=O)N[C@@H](Cc2ccc(O)cc2)C(=O)N[C@@H](CC(C)C)C(=O)N[C@H](C(=O)NCC(=O)NCC(=O)NCC(=O)N[C@@H](CCCCNC(=O)CCOCCOCCOCCOCCOCCOCCOCCOCCOCCOCCOCCOC)C(N)=O)CSCC(=O)N[C@@H](Cc2cc(F)c(F)c(F)c2)C(=O)N(C)[C@@H](Cc2ccccc2)C(=O)N1C [Example 3624] ({CH2CO}-[Phe(3,4,5-F3)][NMeF][NMeNle][d(cisHyp)]DV[NMeF]Y[dPip]WYLCGGGK(CH3O(CH2CH2O)11CH2CH2CO)-NH2; thioether N-13)",0.3 to 9.9 nM
11,CCCC[C@H]1C(=O)N(C)[C@@H](CCCC)C(=O)N[C@@H](CC(C)C)C(=O)N[C@H](C(=O)NCC(=O)NCC(=O)N[C@@H](CC(=O)O)C(=O)NCCCCCCCCCCCCC(=O)O)CSCC(=O)N[C@@H](Cc2ccc(O)cc2)C(=O)N(C)[C@@H](C)C(=O)N[C@@H](CC(=O)O)C(=O)N2CCC[C@H]2C(=O)N[C@@H](Cc2cnc[nH]2)C(=O)N[C@@H](CCCCN)C(=O)N2C[C@H](O)C[C@H]2C(=O)N[C@@H](Cc2c[nH]c3ccccc23)C(=O)N[C@@H](CCCCN)C(=O)N[C@@H](Cc2cn(CC(=O)O)c3ccccc23)C(=O)N1C [Example 11220] ({CH2CO}-Y[NMeA]DPHK[Hyp]WK[Trp(1-CH2COOH)][NMeNle][NMeNle]LCGGD-{NH(CH2)12COOH}; thioether N-14),10 to 99 nM
12,CCCC[C@H]1C(=O)N(C)[C@@H](CCCC)C(=O)N[C@@H](CC(C)C)C(=O)N[C@@H](C(=O)N[C@@H](CC(=O)O)C(=O)N[C@@H](CC(=O)NCCCOCCOCCOCCCNC(=O)C[C@H](NC(=O)CCCCCCCCCCCCCCC(=O)O)C(=O)O)C(=O)O)CSCC(=O)N[C@@H](Cc2ccc(O)cc2)C(=O)N(C)[C@@H](C)C(=O)N[C@@H](CC(N)=O)C(=O)N2CCC[C@@H]2C(=O)N[C@@H](CN)C(=O)N[C@@H](CC(C)C)C(=O)N2C[C@@H](O)CC2C(=O)N[C@@H](Cc2c[nH]c3ccccc23)C(=O)N[C@@H](CCN)C(=O)N[C@@H](Cc2cn(CC(=O)O)c3ccccc23)C(=O)N1C (stereo partly shown) [Example 11244] ({CH2CO}-Y[NMeA]N[dP][Dap]L[X19]W[Dab][Trp(1-CH2COOH)][NMeNle][NMeNle]L[dC]DD(X18)-OH; thioether N-14),100 to 1600 nM
13,CCCC[C@H]1C(=O)N(C)[C@@H](CCCC)C(=O)N[C@@H](CC(C)C)C(=O)N[C@H](C(=O)NCC(=O)NCC(=O)NCC(=O)NCCCCCCCCCCC(=O)O)CSCC(=O)N[C@@H](Cc2ccc(O)cc2)C(=O)N(C)[C@@H](C)C(=O)N[C@@H](CC(N)=O)C(=O)N2CCC[C@H]2C(=O)N[C@@H](Cc2cnc[nH]2)C(=O)N[C@@H](CCC(=O)O)C(=O)N2C[C@H](O)C[C@H]2C(=O)N[C@@H](Cc2c[nH]c3ccccc23)C(=O)N[C@@H](CCN)C(=O)N[C@@H](Cc2cn(CC(=O)O)c3ccccc23)C(=O)N1C [Example 11079] ({CH2CO}-Y[NMeA]NPHE[Hyp]W[Dab][Trp(1-CH2COOH)][NMeNle][NMeNle]LCGGG[Aun]-OH; thioether N-14),10 to 99 nM
